This note sets out measurements from patent publication US20260176289A1, “SMALL MOLECULE INHIBITORS OF KRAS PROTEINS” (Merck Sharp & Dohme LLC, priority 2022, published 2026).

Read-outs that look alike come from different tables or passages of the source.

The subject of assay [1] is AsPC-1 cells. Nature of the assay: Cellular phospho-ERK assay, AsPC-1 cells (homozygous KRAS-G12D). Particulars: Homo sapiens, ASPC1, 2 h, read-out: AsPC1 pERK IC50. The assay is classed as cell-based. In short, it runs like this:
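ERK phosphorylation relative to total ERK is the endpoint, detected by AlphaScreen-based SureFire multiplex following a 2-hour treatment at 37 °C. Compounds are titrated 1:3 over ten points from 30 μM.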

Assay [2] addresses KRAS-G12D (Homo sapiens, UniProt P01116, G12D). Nature of the assay: SOS-catalyzed nucleotide exchange assay (Procedure A, TR-FRET), KRAS-G12D. The assay is classed as biochemical. The conditions noted are these: nucleotide exchange, read-out: KRAS G12D GNE IC50. In short, it runs like this: (§1)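 Signal ratio (520/495 nm, excitation 340 nm) reports Bodipy-GDP retention on biotinylated RAS after SOS-catalyzed exchange with 3 mM GTP. SOS was 40 nM, except 160 nM for G12V. Room-temperature exchange lasted 60 min (90 min for G12V), following a 60 min compound preincubation.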

Assay [3] has as its system SW620 cells. Nature of the assay: Cellular phospho-ERK assay, SW620 cells (homozygous KRAS-G12V). The conditions noted are these: Homo sapiens, read-out: SW620 pERK IC50. The assay is classed as cell-based. Here is the method: (§2) Procedure for Cellular Phospho-ERK Assay in KRAS Wild Type and Mutant (G12D, G12V) Cell Lines
(§3) MKN-1 cells (JCRB JCRB0252) containing amplified wild-type KRAS, were cultured in growth medium that contains RPMI 1640-GlutaMAX™-I (ThermoFisher Scientific 61870) containing 10% heat inactivated fetal bovine serum (ThermoFisher Scientific 10091148), 1 mM sodium pyruvate and 10 mM HEPES. PANC08.13 cells (ATCC® CRL-2551™), containing homozygous KRAS-G12D activating mutation, were cultured in growth medium made of RPMI1640-GlutaMAX™-I (ThermoFisher Scientific 61870) containing 15% heat inactivated fetal bovine serum (ThermoFisher Scientific 10091148)). AsPC-1 cells (ATCC® CRL-1682™), containing homozygous KRAS-G12D activating mutation, were cultured in T150 flask in growth medium (RPMI medium 1640-GlutaMAX™-I (ThermoFisher Scientific 61870) containing 10% fetal bovine serum (ThermoFisher Scientific 10091148)). SW620 cells (ATCC® […]), containing homozygous KRAS-G12V activating mutation, were cultured in growth medium that contains RPMI 1640-GlutaMAX™-I (ThermoFisher Scientific 61870) containing 10% heat inactivated fetal bovine serum (ThermoFisher Scientific 10091148).
(§4) Cells for the assay were harvested in growth medium after TrypLE (ThermoFisher scientific 12604021) digestion and were seeded in a 384-well collagen coated cell culture plate (Corning 356702) at a density of 10,000-15,000 cells/20 μL/well, and incubated at 37° C., 5% CO2 overnight. The compound (with 10 mM stock concentration) dose-response titrations were prepared [30 μM final ERK detection assay concentration and 1:3 dilutions, 10-point dose response] and appropriate amounts (270 nL) of test compounds were dispensed in a 384-well intermediate plate using an Echo 550 liquid handler. 30 μL/well of RPMI medium 1640-GlutaMAX™—I was added to the intermediate plate and the contents of the intermediate plate (10 μL/well) were then transferred to the 384-well collagen coated cell culture plate, which was incubated at 37° C., 5% CO2 for 2 hours. After removal of medium from the collagen coated cell culture plate, cells were lysed in lysis buffer from Alpha SureFire® Ultra™ Multiplex p-ERK and total ERK assay kit (PerkinElmer MPSU-PTERK) containing Halt™ Protease and Phosphatase inhibitor cocktail (ThermoFisher Scientific 78446) at room temperature with constant shaking at 300 rpm for 30 minutes. The cell lysates were then transferred to an OptiPlate-384 plate (PerkinElmer 6005620), and the phosphorylation of ERK (p-ERK) and total ERK levels were detected by Alpha SureFire® Ultra™ Multiplex p-EEK kit and total ERK assay kit (PerkinElmer MPSU-PTERK) following the manufacturer's protocol. Assay plates were read on a En Vision Multimode Plate Reader (PerkinElmer), and the ratio of p-ERK vs. total ERK in each well was used as the final readout. Dose response curves were analyzed using a 4-parameter logistic model to calculate IC50 values using Spotfire software.

In assay [4] the target is KRAS-G12V (Homo sapiens, UniProt P01116, G12V). In words: SOS-catalyzed nucleotide exchange assay (Procedure A, TR-FRET), KRAS-G12V. In kind it is biochemical. The conditions noted are these: nucleotide exchange, read-out: KRAS G12V GNE IC50. In short, it runs like this:
as §1

Assay [5] concerns MKN-1 cells. Nature of the assay: Cellular phospho-ERK assay, MKN-1 cells (amplified wild-type KRAS). In kind it is cell-based. The conditions noted are these: Homo sapiens, read-out: MKN1 pERK IC50. Here is the method:
as §2, §3, §4

In assay [6] the target is KRAS-WT (Homo sapiens, UniProt P01116). Nature of the assay: SOS-catalyzed nucleotide exchange assay (Procedure A, TR-FRET), KRAS-WT. The conditions noted are these: nucleotide exchange, read-out: KRAS WT GNE IC50. In kind it is biochemical. The procedure, abridged:
as §1
A general note: Time-resolved FRET reads energy transfer from a long-lived donor to a nearby acceptor.

Where [7] appears, read: SW-620, 2 hours compound incubation.
Where [8] appears, read: amplified wild-type KRAS, 2 hours.

Sequence of KRAS-G12V (P01116 with tags, fused parts or gaps isoform P01116-2 G12V): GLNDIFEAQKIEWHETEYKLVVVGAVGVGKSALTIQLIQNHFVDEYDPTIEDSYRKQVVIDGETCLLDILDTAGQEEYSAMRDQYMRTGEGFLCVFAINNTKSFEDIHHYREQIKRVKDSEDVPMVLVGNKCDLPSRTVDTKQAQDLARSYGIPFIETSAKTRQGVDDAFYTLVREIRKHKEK
Sequence of KRAS-WT (P01116 with tags, fused parts or gaps isoform P01116-2): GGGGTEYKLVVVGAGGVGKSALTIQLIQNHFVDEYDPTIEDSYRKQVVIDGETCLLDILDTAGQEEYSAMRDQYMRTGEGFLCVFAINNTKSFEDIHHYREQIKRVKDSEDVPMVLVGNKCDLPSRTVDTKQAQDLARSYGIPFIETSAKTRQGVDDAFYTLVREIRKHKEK
Sequence of KRAS-G12D (P01116 with tags, fused parts or gaps isoform P01116-2 G12D): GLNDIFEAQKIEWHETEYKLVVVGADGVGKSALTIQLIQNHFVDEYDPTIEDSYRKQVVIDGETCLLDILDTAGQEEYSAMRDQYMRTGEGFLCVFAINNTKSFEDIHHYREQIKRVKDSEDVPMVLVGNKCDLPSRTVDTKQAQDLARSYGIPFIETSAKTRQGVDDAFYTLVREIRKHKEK

As usually defined, the IC50 is the concentration needed to halve the response being measured. For the molecule `CO[C@H]1CN2CCC[C@@]2(COc2nc(N3CCOC[C@@](C)(O)C3)c3c(n2)sc2c(-c4c(C5CC5)c(Cl)cc5[nH]ncc45)nccc23)C1` [Ex-229, (6S)-4-(8-(6-chloro-5-cyclopropyl-1H-indazol-4-yl)-2-(((2R,7aS)-2-meth-oxytetrahydro-1H-pyrrolizin-7a(5H)-yl)methoxy)pyrido [4′,3′:4,5]thieno[2,3-d]pyrimidin-4-yl)-6-methyl-1,4-oxaze-pan-6-ol], the IC50 in assay [1] (2 hours compound incubation) is 109 nM; in assay [2], 6.54 nM; in assay [3] (setting [7]), 38.2 nM; in assay [4], 19.1 nM; in assay [5] (2 hours compound incubation), 51.9 nM; in assay [6], 22.5 nM.
As for `Cc1cc2[nH]ncc2c(-c2nccc3c2sc2nc(OC[C@@]45CCCN4C[C@H](F)C5)nc(N4CCOC[C@@](C)(O)C4)c23)c1C1(F)CC1` [Ex-54, (6S)-4-(8-(5-(1-fluorocyclopropyl)-6-methyl-1H-indazol-4-yl)-2-(((2R,7aS)-2-fluorotetrahydro-1H-pyrrolizin-7a(5H)-yl)methoxy)pyrido[4′,3′:4,5]thi-eno[2,3-d)pyrimidin-4-yl)-6-methyl-1,4-oxazepan-6-ol], the IC50 was determined as 84.6 nM in assay [1] (KRAS-G12D, 2 hours); 5.06 nM in assay [2]; 186 nM in assay [3] (SW-620, KRAS-G12V, 2 hours); 11.1 nM in assay [4]; 56.5 nM in assay [5] (setting [8]); 10.8 nM in assay [6].
Take `Cc1c2nc(OC[C@@]34CCCN3C[C@H](F)C4)nc(N3CCOC[C@@](C)(O)C3)c2n2ccnc(-c3c(C4CC4)c(Cl)cc4[nH]ncc34)c12` (single isomer, unassigned) [Ex-302]: the IC50 in assay [1] (KRAS-G12D, 2 hours) stood at 135 nM; in assay [2], 8.99 nM; in assay [3] (SW-620, KRAS-G12V, 2 hours), 48.9 nM; in assay [4], 17 nM; in assay [5] (setting [8]), 49.5 nM; in assay [6] it was 18.6 nM.
On to `C[C@@]1(O)COCCN(c2nc(OC[C@@]34CCCN3C[C@]3(CC3(F)F)C4)nc3sc4c(-c5c(C6CC6)c(Cl)cc6[nH]ncc56)nccc4c23)C1` [Ex-212, (6S)-4-(8-(6-chloro-5-cyclopropyl-1H-indazol-4-yl)-2-(((1R,7a'S)-2,2-difluorodihydro-1′H,3′H-spiro[cyclo-propane-1,2′-pyrrol-izin]-7a′(5′H)-yl)-methoxy)pyrido [4′,3′:4,5]thieno[2,3-d]pyrimidin-4-yl)-6-methyl-1,4-oxaze-pan-6-ol], for which the IC50 in assay [1] (2 hours compound incubation) is 67.3 nM; in assay [2], 4.75 nM; in assay [3] (setting [7]), 56.1 nM; in assay [4], 39.8 nM; in assay [5] (2 hours compound incubation), 89.8 nM; in assay [6] it was 17.8 nM.
`C[C@@]1(O)COCCN(c2nc(OC[C@]3(CN4CCC5(CC5)C4)CC3(F)F)nc3sc4c(-c5c(C6(F)CC6)c(Cl)cc6[nH]ncc56)nccc4c23)C1` [Ex-262, (6S)-4-(2-(((R)-1-((5-azaspiro[2.4]heptan-5-yl)methyl)-2,2-difluorocyclopropyl)methoxy)-8-(6-chloro-5-(1-fluorocyclopropyl)-1H-indazol-4-yl)pyrido[4′,3′:4,5]thieno[2,3-d]pyrimidin-4-yl)-6-methyl-1,4-oxazepan-6-ol]: the IC50 in assay [1] (2 hours compound incubation) came out at 119 nM; in assay [2], 4.44 nM; in assay [3] (setting [7]) it was 66.1 nM; in assay [4], 26.7 nM; in assay [5] (2 hours compound incubation) it was 52.4 nM; in assay [6], 22.2 nM.
Regarding `C[C@@]1(O)COCCN(c2nc(OC[C@@]34CCCN3C/C(=C\F)C4)nc3sc4c(-c5c(C6CC6)c(C(F)(F)F)cc6[nH]ncc56)nccc4c23)C1` [Ex-87, (6S)-4-(8-(5-cyclopropyl-6-(trifluoromethyl)-1H-indazol-4-yl)-2-(((S,Z)-2-(fluoromethylene)tetrahy-dro-1H-pyrrolizin-7a(5H)-yl)methoxy)pyrido[4′,3′:4,5]thi-eno[2,3-d]pyrimidin-4-yl)-6-methyl-1,4-oxazepan-6-ol], the IC50 came to 176 nM in assay [1] (KRAS-G12D, 2 hours); 41.6 nM in assay [2]; 96.6 nM in assay [3] (SW-620, KRAS-G12V, 2 hours); 31.4 nM in assay [4]; 109 nM in assay [5] (setting [8]); 80 nM in assay [6].
`C[C@@]1(O)COCCN(c2nc(OC[C@@]34CCCN3C[C@H](F)C4)nc3c(Cl)c4c(-c5c(C6CC6)c(Cl)cc6[nH]ncc56)nccn4c23)C1` (single isomer, unassigned) [Ex-300]: the IC50 in assay [1] (KRAS-G12D, 2 hours) worked out at 222 nM; in assay [2], 6.53 nM; in assay [3] (SW-620, KRAS-G12V, 2 hours), 39.8 nM; in assay [4], 8.43 nM; in assay [5] (setting [8]), 54.6 nM; in assay [6], 14.4 nM.
For the molecule `CN(C)C[C@@]1(COc2nc(N3CCOC[C@@](C)(O)C3)c3c(n2)sc2c(-c4c(C5(F)CC5)c(Cl)cc5[nH]ncc45)nccc23)CC1(F)F` [Ex-132, (6S)-4-(8-(6-chloro-5-(1-fluorocyclo-propyl)-1H-indazol-4-yl)-2-(((R)-1-((dimethylamino)-methyl)-2,2-di-fluorocyclopropyl)-methoxy)pyrido [4′,3′:4,5]thieno[2,3-d]pyrimidin-4-yl)-6-methyl-1,4-oxaze-pan-6-ol], the IC50 in assay [1] (2 hours compound incubation) turned out to be 24 nM; in assay [2], 5.45 nM; in assay [3] (setting [7]), 14.5 nM; in assay [4] it was 13.9 nM; in assay [5] (2 hours compound incubation), 44.4 nM; in assay [6], 15.7 nM.
Consider `Cc1cc2[nH]ncc2c(-c2nccc3c2sc2nc(OC[C@@]45CCCN4C[C@H](F)C5)nc(N4CCOC[C@@](C)(O)C4)c23)c1-c1ccc(F)o1` [Ex-72, (6S)-4-(8-(5-(5-fluorofuran-2-yl)-6-methyl-1H-indazol-4-yl)-2-(((2R,7aS)-2-fluorotetrahydro-1H-pyrrolizin-7a(5H)-yl)methoxy)pyrido[4′,3′:4,5]thi-eno[2,3-d]pyrimidin-4-yl)-6-methyl-1,4-oxazepan-6-ol], for which the IC50 in assay [1] (KRAS-G12D, 2 hours) stood at 139 nM; in assay [2] it was 15 nM; in assay [3] (SW-620, KRAS-G12V, 2 hours) it was 53.8 nM; in assay [4], 35.3 nM; in assay [5] (setting [8]), 82.4 nM; in assay [6], 53.9 nM.
Regarding `C[C@@]1(O)COCCN(c2nc(OC[C@@]34CCCN3C[C@H](F)C4)nc3sc4c(-c5c6cn[nH]c6cc6ccc(F)c(Cl)c56)nccc4c23)C1` [Ex-162], the IC50 in assay [1] (2 hours compound incubation) came out at 133 nM; in assay [2], 19.8 nM; in assay [3] (setting [7]) it was 48 nM; in assay [4], 47.5 nM; in assay [5] (2 hours compound incubation), 106 nM; in assay [6], 43.6 nM.
